{
  "source": "the supplement of paper PMC10307832",
  "test_in_all_cases": "relative viability (nuclei count vs DMSO), 5 days (fraction); higher = more cells survive",
  "key": {"Temozolomide + Foretinib": {"compound": "Cn1nnc2c(C(N)=O)ncn2c1=O [Temozolomide] + COc1cc2c(Oc3ccc(NC(=O)C4(C(=O)Nc5ccc(F)cc5)CC4)cc3F)ccnc2cc1OCCCN1CCOCC1 [Foretinib] (partner 0.25 µM)", "in_short": "(§1)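 Relative viability is defined as nuclei in treated wells over nuclei in vehicle wells. Duplicate plates were run and medians reported. Lung cancer cell lines in 1536-well plates were dosed by pin tool one day after seeding, with one drug or with a fixed anchor-drug dose plus five library-drug doses (not always all listed) in √10 steps, and nuclei were counted after 5 days.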"}, "[1]": {"compound": "Cn1nnc2c(C(N)=O)ncn2c1=O [Temozolomide] + CS(=O)(=O)N1CCN(Cc2cc3nc(-c4cccc5[nH]ncc45)nc(N4CCOCC4)c3s2)CC1 [Pictilisib] (partner 1 µM)", "in_short": "as §1"}, "Temozolomide + Alpelisib": {"compound": "Cn1nnc2c(C(N)=O)ncn2c1=O [Temozolomide] + Cc1nc(NC(=O)N2CCC[C@H]2C(N)=O)sc1-c1ccnc(C(C)(C)C(F)(F)F)c1 [Alpelisib] (partner 2 µM)", "in_short": "as §1"}, "Temozolomide + AZD7762": {"compound": "Cn1nnc2c(C(N)=O)ncn2c1=O [Temozolomide] + NC(=O)Nc1cc(-c2cccc(F)c2)sc1C(=O)N[C@H]1CCCNC1 [AZD7762] (partner 0.2 µM)", "in_short": "as §1"}},
  "data": [
    {"cell line": "NCI-H1703", "values": [
      {"measurement": "relative viability", "setting": "Temozolomide + Foretinib; first compound 0.2 µM", "result": 0.297},
      {"measurement": "relative viability", "setting": "Temozolomide + Foretinib; first compound 0.6325 µM", "result": 0.35},
      {"measurement": "relative viability", "setting": "Temozolomide + Foretinib; first compound 2 µM", "result": 0.401},
      {"measurement": "relative viability", "setting": "Temozolomide + Foretinib; first compound 6.325 µM", "result": 0.281},
      {"measurement": "relative viability", "setting": "Temozolomide + Foretinib; first compound 20 µM", "result": 0.374},
      {"measurement": "relative viability", "setting": "[1]; first compound 0.2 µM", "result": 0.249},
      {"measurement": "relative viability", "setting": "[1]; first compound 0.6325 µM", "result": 0.255},
      {"measurement": "relative viability", "setting": "[1]; first compound 2 µM", "result": 0.301},
      {"measurement": "relative viability", "setting": "[1]; first compound 20 µM", "result": 0.272},
      {"measurement": "relative viability", "setting": "Temozolomide + Alpelisib; first compound 0.2 µM", "result": 0.367},
      {"measurement": "relative viability", "setting": "Temozolomide + Alpelisib; first compound 0.6325 µM", "result": 0.344},
      {"measurement": "relative viability", "setting": "Temozolomide + Alpelisib; first compound 2 µM", "result": 0.463},
      {"measurement": "relative viability", "setting": "Temozolomide + Alpelisib; first compound 6.325 µM", "result": 0.288},
      {"measurement": "relative viability", "setting": "Temozolomide + Alpelisib; first compound 20 µM", "result": 0.315},
      {"measurement": "relative viability", "setting": "Temozolomide + AZD7762; first compound 0.2 µM", "result": 0.137},
      {"measurement": "relative viability", "setting": "Temozolomide + AZD7762; first compound 0.6325 µM", "result": 0.1},
      {"measurement": "relative viability", "setting": "Temozolomide + AZD7762; first compound 2 µM", "result": 0.125},
      {"measurement": "relative viability", "setting": "Temozolomide + AZD7762; first compound 6.325 µM", "result": 0.147},
      {"measurement": "relative viability", "setting": "Temozolomide + AZD7762; first compound 20 µM", "result": 0.107}
    ]}
  ]
}
